Entries after “also recorded” stand apart in the source; their conditions may differ.
Assays:
Format in all cases: cell-based, murine
RAW 264.7 cells = experiment: AlamarBlue assay for cell viability; details: Mus musculus, RAW264.7, cytotoxicity against RAW 264.7 cells, 24 h treatment
Method: RAW 264.7 cells were seeded at a density of 5000 cells in 100 μl RPMI 1640 medium with 10% heat-inactivated FBS per well in 96-well flat-bottom plates and incubated for 24 h at 37° C. in a 5% CO2 incubator. Cells were incubated with tested samples for 24 h and the AlamarBlue® assay was used to determine the cytotoxicity of the test samples. The procedure was conducted following the protocol described in the manufacture's instruction (AbD Serotec Ltd).
The aim of this study is to identify non-toxic polyenylpyrrole derivatives which can be used as anti-inflammatory agents. Compounds 1a-n were evaluated for their cytotoxicities against the murine macrophages cell line RAW 264.7 after 24 h treatment.

[1] = test system: LPS-induced NO generation in RAW 264.7 macrophages; experiment: NO inhibitory assay (Griess reaction) in LPS-activated macrophages; details: for EC50: Mus musculus, RAW264.7, 50% inhibition of the LPS-induced NO generation, RAW 264.7, LPS 1 μg/ml, 24 h, read-out: ED50 (the source's name); for production of NO by LPS-activated cells: RAW 264.7, LPS 1 μg/ml 24 h, Griess reaction; for background level of NO: compound alone, no LPS, RAW 264.7, data not shown
Method: In (A) and (C), cells (5×10^5/ml) were incubated with polyenylpyrrole derivatives or DMSO (vehicle) for 30 min followed by stimulating with LPS (1 μg/ml) for 24 h, then NO (A), IL-6 and TNF-α (C) concentration in culture medium were assayed by Griess reaction and ELISA, respectively. In (B), cells (5×10^5/ml) were pretreated with polyenylpyrrole derivatives or DMSO for 30 min followed by stimulating with LPS (1 μg/ml) for 24 h, then the protein expression of iNOS and COX-2 were assayed by Western blot. […] RAW 264.7 cells were seeded in 24-well plates at a density of 5×10^5 cells/ml, and then incubated with or without LPS (1 μg/ml) in the absence or presence of tested samples for 24 h. The effects of the tested samples on NO production were measured indirectly by analysis of nitrite levels using the Griess reaction.

iNOS = experiment: Western blot of iNOS protein in LPS-activated RAW 264.7 macrophages; details: LPS-activated RAW 264.7, compared with vehicle
Method: (§1) In (A) and (C), cells (5×10^5/ml) were incubated with polyenylpyrrole derivatives or DMSO (vehicle) for 30 min followed by stimulating with LPS (1 μg/ml) for 24 h, then NO (A), IL-6 and TNF-α (C) concentration in culture medium were assayed by Griess reaction and ELISA, respectively. In (B), cells (5×10^5/ml) were pretreated with polyenylpyrrole derivatives or DMSO for 30 min followed by stimulating with LPS (1 μg/ml) for 24 h, then the protein expression of iNOS and COX-2 were assayed by Western blot.
(§2) Whole cell lysates were separated by SDS-PAGE and electrotransferred to a PVDF membrane. The membranes were incubated in blocking solution—5% nonfat milk in phosphate buffered saline with 0.1% Tween 20—at room temperature for 1 h. Each membrane was incubated with a specific primary antibody at room temperature for 2 h. After washing three times in PBS with 0.1% Tween 20, the membrane was incubated with an HRP-conjugated secondary antibody directed against the primary antibody. The membrane was developed by an enhanced chemiluminescence Western blot detection system.

COX-2 = experiment: Western blot of COX-2 protein in LPS-activated RAW 264.7 macrophages
Method: as §1, §2

IL-6 = IL-6 ELISA, RAW 264.7 macrophages; details: for secretion of IL-6: LPS-activated RAW 264.7, LPS 1 μg/ml 24 h; for background level of IL-6: compound alone, no LPS, data not shown
Method: (§3) The effects of tested samples on IL-1β, TNF-α and IL-6 production were measured by ELISA according to the manufacturer's instruction. In brief, 50 μl of biotinylated antibody reagent and 50 μl of supernatant were added to an anti-mouse IL-1β, TNF-α and IL-6 precoated stripwell plate, and incubated at room temperature for 2 h. After washing the plate three times with washing buffer, 100 μl of diluted streptavidin-HRP concentrate was added to each well and incubated at room temperature for 30 min. The washing process was repeated; then 100 μl of a premixed tetramethylbenzidine substrate solution was added to each well and developed at room temperature in the dark for 30 min. Following the addition of 100 μl of stop solution to each well to stop the reaction, the absorbance of the plate was measured by a microplate reader at 450 nm wavelength.

TNF-α = TNF-α ELISA, RAW 264.7 macrophages; details: for TNF-α secretion: LPS-activated RAW 264.7, LPS 1 μg/ml 24 h; for background level of TNF-α: compound alone, no LPS, data not shown
Method: as §1, §3

ROS = experiment: Intracellular ROS production, LPS-activated RAW 264.7 macrophages; details: compound 1h 20 μM, NAC 10 mM, 30 min before LPS
Method: In (A), RAW 264.7 macrophages (5×10^5/ml) were incubated with compound 1h (20 μM), N-acetyl cysteine (NAC; 10 mM) or DMSO (vehicle) for 30 min followed by LPS (1 μg/ml) stimulating for the indicated time, then ROS levels were measured by detection of the fluorescence intensity of the fluorophore carboxyl-DCF and expressed relative to those at time zero. In (B), RAW 264.7 macrophages (5×10^5/ml) were incubated with compound 1h (20 μM) or DMSO for 30 min followed by LPS (1 μg/ml) stimulating for 0-60 min, then the phosphorylation levels of ERK1/2, JNK1/2, p38 were analyzed by Western blot. In (C), J774A.1 macrophages (5×10^5/ml) were incubated with compound 1h or DMSO for 30 min followed by LPS (1 μg/ml) stimulating for 20 min, then the phosphorylation levels of ERK1/2, JNK1/2, p38 were analyzed by Western blot.
Intracellular ROS stimulated by LPS was measured by detecting the fluorescence intensity of the 2′,7′-dichlorofluorescein diacetate (H2DCFDA) oxidized product (DCF) (Molecular Probes, Eugene, Oreg.). […] The relative fluorescence intensity of fluorophore DCF, formed by peroxide oxidation of the non-fluorescent precursor, was detected at an excitation wavelength of 485 nm and an emission wavelength of 530 nm with a microplate absorbance reader (Bio-Rad Laboratories, Inc).

SMILES	IC50 (RAW 264.7 cells)	EC50 [1]	production of NO by LPS-activated cells [1]	background level of NO [1]	expression of iNOS protein (iNOS)	COX-2 expression (COX-2)	secretion of IL-6 (IL-6)	background level of IL-6 (IL-6)	TNF-α secretion (TNF-α)	background level of TNF-α (TNF-α)	LPS-stimulated ROS production (ROS)
Cc1c(O)cc(/C=C/C=C/C=C/C=C/c2[nH]ccc2Cl)oc1=O [Compound 1i]	> 100 µM	16 ± 2 µM	decreased production; also recorded: decreased the production of NO by LPS-activated cells in a dose-dependent manner	did not alter	decreased production; also recorded: reduced the expression of iNOS protein	did not affect	decreased production; also recorded: decreased the secretion of IL-6 by LPS-activated RAW 264.7 macrophages in a dose-dependent manner	did not alter	slight reduced by compounds 1h, 1i and 1n, but not significantly	did not alter	–
COc1cc(/C=C/C=C/C=C/C=C/c2sccc2Cl)oc(=O)c1 [Compound 1j]	> 100 µM	29 ± 6 µM	–	–	–	–	–	–	–	–	–
COc1cc(/C=C/C=C/C=C/C=C/c2sccc2Cl)oc(=O)c1C [Compound 1k]	> 100 µM	18 ± 2 µM	–	–	–	–	–	–	–	–	–
COc1cc(/C=C/C=C/C=C/C=C/c2ccccc2Cl)oc(=O)c1C [Compound 1l]	> 100 µM	18 ± 3 µM	–	–	–	–	–	–	–	–	–
COc1cc(/C=C/C=C/C=C/C=C/c2cccc(Cl)c2)oc(=O)c1C [Compound 1m]	> 100 µM	26 ± 3 µM	–	–	–	–	–	–	–	–	–
COc1cc(/C=C/C=C/C=C/C=C/c2c(Cl)ccn2S(C)(=O)=O)oc(=O)c1C [Compound 1n]	> 100 µM	17 ± 2 µM	decreased production; also recorded: decreased the production of NO by LPS-activated cells in a dose-dependent manner	did not alter	decreased production; also recorded: reduced the expression of iNOS protein	did not affect	decreased production; also recorded: decreased the secretion of IL-6 by LPS-activated RAW 264.7 macrophages in a dose-dependent manner	did not alter	slight reduced by compounds 1h, 1i and 1n, but not significantly	did not alter	–
CC(=O)N[C@@H](CS)C(=O)O [N-acetyl cysteine, reference compound]	–	–	–	–	–	–	–	–	–	–	reduced ROS production

Source: US9475789B2, “Use of polyenylpyrrole derivatives for treating inflammation” (WELLHEAD BIOLOGICAL TECHNOLOGY CORP., priority 2014, dated 2016)
